System: blood platelet activating factor (PAF)
Assay: Inhibition of PAF-induced platelet aggregation in platelet-rich plasma (aggregometer)
Type: cell-based
Conditions: rabbit platelet-rich plasma, 37° C., stirring; test substance added 2 minutes before PAF (4 nM, sub-maximum dosage); read-out: IC50 (concentration of the test substance which reduces to a half the aggregation of the blood platelets brought about by PAF)
Method: The aggregation of the blood platelets was measured with the aid of an aggregometer at 37° C. while stirring. […] The IC50 value (in μM) given in the following Table corresponds to that concentration of the test substance which reduces to a half the aggregation of the blood platelets brought about by PAF.

Compound	IC50 [nM]
CCCCCCCCCCCCCCCCCCNC(=O)OCC(COC(=O)NCC[n+]1ccccc1)OC (racemic) [Example 7a, 1-[2-[1-[(RS)-2-methoxy-3-(octadecylcarbamoyloxy)propoxy]formamido]ethyl]pyridinium chloride]	2000
CCCCCCCCCCCCCCCCCCNC(=O)OC[C@@H](COC(=O)CCC[n+]1ccccc1)OC(=O)OC [Example 21b, 1-[3-[[(R)-2-[(methoxycarbonyl)oxy]-3-[(octadecylcarbamoyl)oxy]propoxy]carbonyl]propyl]pyridinium chloride]	200
CCCCCCCCCCCCCCCCCCNC(=O)OC[C@@H](COC(=O)CCC[n+]1ccsc1)OC(=O)OC [Example 21e, 3-[3-[[(R)-2-[(methoxycarbonyl)oxy]-3-[(octadecylcarbamoyl)oxy]propoxy]carbonyl]propyl]thiazolium iodide]	40
CCCCCCCCCCCCCCCCCCOC[C@H](COC(=O)CCC[n+]1ccccc1)OC(=O)NC [Example 1, 1-[3-[[(R)-2-[(methylcarbamoyl)oxy]-3-(octadecyloxy)propoxy]carbonyl]-propyl]pyridinium chloride]	1600
CCCCCCCCCCCCCCCCCCNC(=O)OCC(COC(=O)CCC[n+]1ccsc1)OC (racemic) [Example 20b, 3-[3-[[(RS)-2-methoxy-3-[(octadecylcarbamoyl)oxy]propoxy]carbonyl]propyl]thiazolium chloride]	250
CCCCCCCCCCCCCCCCCCOC[C@H](COC(=O)OCC[n+]1ccccc1)OC(=O)OC [Example 10, 1-[2-[[(R)-2-[(methoxycarbonyl)oxy]-3-(octadecyloxy)propoxy]carbonyl]oxy]ethyl]pyridinium bromide]	3000
CCCCCCCCCCCCCCCCCCOC[C@H](COC(=O)OCC[n+]1ccccc1)OC(=O)NC [Example 3, 1-[2-[[[(R)-2-[(methylcarbamoyl)oxy]-3-(octadecyloxy)propoxy]carbonyl]oxy]ethyl]pyridinium bromide]	3000
CCCCCCCCCCCCCCCCCCOC[C@H](COC(=O)OCC[n+]1ccsc1)OC(=O)OC [Example 12, 3-[2-[[[(R)-2-[(methoxycarbonyl)oxy]-3-(octadecyloxy)propoxy]carbonyl]oxy]ethyl]thiazolium bromide]	2000
CCCCCCCCCCCCCCCCCCNC(=O)OC[C@H](COC(=O)CCC[n+]1ccsc1)OC(=O)OC [Example 21f, 3-[3-[[(S)-2-[(methoxycarbonyl)oxy]-3-[(octadecylcarbamoyl)oxy]propoxy]carbonyl]propyl]thiazolium iodide]	60
1-[3-[[[(RS)-2-(1-methoxyformamido)-3-(octadecyloxy)propoxy]carbonyl]oxy]propyl]pyridinium chloride [Example 16]	1500
CCCCCCCCCCCCCCCCCCOCC(COC(=O)CC[n+]1ccccc1)NC(=O)OC (racemic) [Example 15]	3000
CCCCCCCCCCCCCCCCCCNC(=O)OC[C@H](COC(=O)CCC[n+]1ccccc1)OC(=O)OC [Example 21d, 1-[3-[[(S)-2-[(methoxycarbonyl)oxy]-3-[(octadecylcarbamoyl)oxy]propoxy]carbonyl]propyl]pyridinium iodide]	200
CCCCCCCCCCCCCCCCCCNC(=O)OCC(COC(=O)OCC[n+]1ccccc1)OC (racemic) [Example 7b, 1-[2-[[[(RS)-2-methoxy-3-[(octadecylcarbamoyl)oxy]propoxy]carbonyl]oxy]ethyl]pyridinium bromide]	1600
CCCCCCCCCCCCCCCCCCNC(=O)OC[C@H](COC(=O)OCC[n+]1ccccc1)OC(=O)OC [Example 11, 1-[2-[[[(R)-2-[(methoxycarbonyl)oxy]-3-(octadecylcarbamoyl)oxy]propoxy]carbonyl]oxy]ethyl]pyridinium bromide]	600
CCCCCCCCCCCCCCCCCCOC(=O)NCC(COC(=O)CCC[n+]1ccccc1)OC(=O)OC (racemic) [Example 26, 1-[3-[[(RS)-2-[(methoxycarbonyl)oxy[-3-[1-(octadecyloxy)-formamido]propoxy]carbonyl]propyl]pyridinium chloride]	400
CCCCCCCCCCCCCCCCCCNC(=O)OCC(COC(=O)CCC[n+]1ccsc1)NC(=O)OC (racemic) [Example 24, 1-[3-[[(RS)-2-(1-methoxyformamido)-3-(octadecylcarbamoyloxy)propoxy]carbonyl]propyl]thiazolium chloride]	150
CCCCCCCCCCCCCCCCCCNC(=O)OCC(COC(=O)CCC[n+]1ccccc1)OC(=O)OC (racemic) [Example 21a, 1-[3-[[(RS)-2-[(methoxycarbonyl)oxy]-3-[(octadecylcarbamoyl)oxy]propoxy]carbonyl]propyl]pyridinium chloride]	150

Reference: patent publication US4731373A, “Glycerin derivatives and inhibition of blood PAF” (Hoffman-La Roche Inc., priority 1983, dated 1988)
